From patent publication US4840658A, “Algicidal composition” (Sumitomo Chemical Company, Limited, priority 1986, dated 1989)
Where a name gives a salt, the structure may show the parent alone. Read-outs that look alike come from different tables or passages of the source.

How the values were obtained:
[1] = test system: Heterosigma akashiwo; test: Effect of unsaturated higher fatty acids on viability of Heterosigma akashiwo (cytolysis); type: cell-based; conditions: 0.5 h
Protocol: Effect of the several unsaturated higher fatty acids on viability of Heterosigma akashiwo.
(§1) Heterosigma akashiwo was incubated in PES medium under 14 hr photoperiod (3000 lux) condition at 20° C. The effects of test compounds were examined on the plankton at exponential growth phase and the medium at the phase generally contained 7×10^4 cells/ml.
(§2) The unsaturated higher fatty acid was accurately weighed and dissolved in benzene. An aliquot of the solution was transferred in a 10 ml volumetric flask. The benzene was removed in vacuo and the residue was dissolved in 0.2 ml of ethanol. A PES medium was added bit by bit to make a 10 ml solution.
(§3) Each of 1 ml of the plankton medium was transferred to the wells of a multi-dish at the cell number of 7×10^4. After good conditions of the plankton were confirmed under an inverted microscope, 1 ml of graded levels of the test solution was mixed. At specified intervals, morphological examination was conducted under the microscope, and effect concentration (EC100 ) was defined as the minimum concentration at which all of the plankton tested were cytolyzed 30 min after introduction of a test material.

[2] = test system: Killifish (Oryzias latipes); test: Acute toxicity of unsaturated higher fatty acids to killifish; type: in vivo; conditions: adult killifish, 48 hr, 25° C.
Protocol: Acute toxicity of the several unsaturated higher fatty acids.
Killifish (Oryzias latipes) at adult stage were acclimated to laboratory conditions in dechlorinated water. Fish were withheld from food for 24 hr prior to the test.
Graded levels of the compounds in 0.5 ml ethanol were added to glass vessels, and then mixed with 100 ml of dechlorinated fresh water. Five fish were introduced to the vessel and maintained for 48 hr at 25° C.
As a solvent control, 0.5% ethanol solution was used.

[3] = test system: Tetraselmis cordiformis; test: Effects of OTA on viability of plankton species; type: cell-based; parameters: key: +: 100% cytolysis of planktons after 2 hr; ±: No cytolysis but no movement; -: No effect
Protocol: as §1, §2, §3
(§4) Effect of 6Z, 9Z, 12Z, 15Z-octadecateraeonic acid (OTA) on viability of several plankton species.
(§5) The test system was the same as in Experiment 1, except test concentration of 5 and 25 ppm and test duration of 48 hr.

[4] = test system: Cricosphaera roscoffensis; test: Effects of OTA on viability of plankton species; type: cell-based; parameters: key: +: 100% cytolysis of planktons after 2 hr; ±: No cytolysis but no movement; -: No effect
Protocol: as §1, §2, §3, §4, §5

[5] = test system: Gymnodinium sanguineum; test: Effects of OTA on viability of plankton species; type: cell-based
Protocol: as §1, §2, §3, §4, §5

[6] = test system: Gymnodinium nagasakiense; test: Effects of OTA on viability of plankton species; type: cell-based
Protocol: as §1, §2, §3, §4, §5

[7] = test system: Chattonella antiqua; test: Effects of OTA on viability of plankton species; type: cell-based
Protocol: as §1, §2, §3, §4, §5

[8] = test system: Chattonella marina; test: Effects of OTA on viability of plankton species; type: cell-based
Protocol: as §1, §2, §3, §4, §5

[9] = test system: Skeletonema costatum; test: Effects of OTA on viability of plankton species; type: cell-based
Protocol: as §1, §2, §3, §4, §5

[10] = test system: Pterosperma cristatum; test: Effects of OTA on viability of plankton species; type: cell-based
Protocol: as §1, §2, §3, §4, §5

[11] = test system: Chaetoceros debile; test: Effects of OTA on viability of plankton species; type: cell-based
Protocol: as §1, §2, §3, §4, §5

[12] = test system: Olisthodiscus luteus; test: Effects of OTA on viability of plankton species; type: cell-based
Protocol: as §1, §2, §3, §4, §5

[13] = test system: Pyraminonas sp.; test: Effects of OTA on viability of plankton species; type: cell-based
Protocol: as §1, §2, §3, §4, §5

[14] = test system: Hafniomonas reticulata; test: Effects of OTA on viability of plankton species; type: cell-based
Protocol: as §1, §2, §3, §4, §5

[15] = test system: Heterocapsa triguetra; test: Effects of OTA on viability of plankton species; type: cell-based
Protocol: as §1, §2, §3, §4, §5

[16] = test system: Eutreptia sp.; test: Effects of OTA on viability of plankton species; type: cell-based
Protocol: as §1, §2, §3, §4, §5

[17] = test system: Oltmannsiella sp.; test: Effects of OTA on viability of plankton species; type: cell-based
Protocol: as §1, §2, §3, §4, §5

[18] = test system: Chlamydomonas sp.; test: Effects of OTA on viability of plankton species; type: cell-based
Protocol: as §1, §2, §3, §4, §5

[19] = test system: Prorocentrum micans; test: Effects of OTA on viability of plankton species; type: cell-based
Protocol: as §1, §2, §3, §4, §5

[20] = test system: Stephanopyris palmeriana; test: Effects of OTA on viability of plankton species; type: cell-based
Protocol: as §1, §2, §3, §4, §5

[21] = test system: Heterosigma akashiwo; test: Effects of OTA on viability of plankton species; type: cell-based
Protocol: as §1, §2, §3, §4, §5

[22] = test system: Cryptomonas sp.; test: Effects of OTA on viability of plankton species; type: cell-based
Protocol: as §1, §2, §3, §4, §5

[23] = test system: Nephroselmis sp.; test: Effects of OTA on viability of plankton species; type: cell-based
Protocol: as §1, §2, §3, §4, §5

[24] = test system: marine dinoflagellates (Dinophyceae); test: Algicidal activity against marine dinoflagellates; type: cell-based
[25] = minimum concentration at which all plankton cytolyzed 30 min after introduction, read-out: EC100

CCCCC/C=C\C/C=C\CCCCCCCC(=O)O [linoleic acid]
EC100 [1, 25]: 25 µg/mL

CCCCCCCC/C=C\CCCCCCCC(=O)O [oleic acid]
EC100 [1]: 70 to 80 µg/mL

CCC=CCC=CCC=CCC=CCC=CCCCC(=O)O [Na salt of 5, 8, 11, 14, 17-eicosapentaenoic acid]
LC100 [2]: > 50 ppm
Maximum no effect concentration [2]: < 30 ppm

CC/C=C\C/C=C\C/C=C\C/C=C\CCCCC(=O)O [OTA, 6Z, 9Z, 12Z, 15Z-octadecatetraenoic acid]
LC100 [2]: > 25 ppm
Maximum no effect concentration [2]: < 20 ppm
EC100 [1, 25]: 2.5 µg/mL
Effect on viability ([3]; 5 ppm): ±
Effect on viability ([3]; 25 ppm): ±
Effect on viability ([4]; 5 ppm): ±
Effect on viability ([4]; 25 ppm): ±
Effect on viability ([5]; 5 ppm): + (100% cytolysis of planktons after 2 hr)
Effect on viability ([5]; 25 ppm): + (100% cytolysis of planktons after 2 hr)
Effect on viability ([6]; 5 ppm): + (100% cytolysis of planktons after 2 hr)
Effect on viability ([6]; 25 ppm): + (100% cytolysis of planktons after 2 hr)
Effect on viability ([7]; 5 ppm): + (100% cytolysis of planktons after 2 hr)
Effect on viability ([7]; 25 ppm): + (100% cytolysis of planktons after 2 hr)
Effect on viability ([8]; 5 ppm): + (100% cytolysis of planktons after 2 hr)
Effect on viability ([8]; 25 ppm): + (100% cytolysis of planktons after 2 hr)
Effect on viability ([9]; 5 ppm): + (100% cytolysis of planktons after 2 hr)
Effect on viability ([9]; 25 ppm): + (100% cytolysis of planktons after 2 hr)
Effect on viability ([10]; 5 ppm): + (100% cytolysis of planktons after 2 hr)
Effect on viability ([10]; 25 ppm): + (100% cytolysis of planktons after 2 hr)
Effect on viability ([11]; 5 ppm): + (100% cytolysis of planktons after 2 hr)
Effect on viability ([11]; 25 ppm): + (100% cytolysis of planktons after 2 hr)
Effect on viability ([12]; 5 ppm): + (100% cytolysis of planktons after 2 hr)
Effect on viability ([12]; 25 ppm): + (100% cytolysis of planktons after 2 hr)
Effect on viability ([13]; 5 ppm): + (100% cytolysis of planktons after 2 hr)
Effect on viability ([13]; 25 ppm): + (100% cytolysis of planktons after 2 hr)
Effect on viability ([14]; 5 ppm): + (100% cytolysis of planktons after 2 hr)
Effect on viability ([14]; 25 ppm): + (100% cytolysis of planktons after 2 hr)
Effect on viability ([15]; 5 ppm): + (100% cytolysis of planktons after 2 hr)
Effect on viability ([15]; 25 ppm): + (100% cytolysis of planktons after 2 hr)
Effect on viability ([16]; 5 ppm): + (100% cytolysis of planktons after 2 hr)
Effect on viability ([16]; 25 ppm): + (100% cytolysis of planktons after 2 hr)
Effect on viability ([17]; 5 ppm): + (100% cytolysis of planktons after 2 hr)
Effect on viability ([17]; 25 ppm): + (100% cytolysis of planktons after 2 hr)
Effect on viability ([18]; 5 ppm): + (100% cytolysis of planktons after 2 hr)
Effect on viability ([18]; 25 ppm): + (100% cytolysis of planktons after 2 hr)
Effect on viability ([19]; 5 ppm): + (100% cytolysis of planktons after 2 hr)
Effect on viability ([19]; 25 ppm): + (100% cytolysis of planktons after 2 hr)
Effect on viability ([20]; 5 ppm): + (100% cytolysis of planktons after 2 hr)
Effect on viability ([20]; 25 ppm): + (100% cytolysis of planktons after 2 hr)
Effect on viability ([21]; 5 ppm): + (100% cytolysis of planktons after 2 hr)
Effect on viability ([21]; 25 ppm): + (100% cytolysis of planktons after 2 hr)
Effect on viability ([22]; 5 ppm): + (100% cytolysis of planktons after 2 hr)
Effect on viability ([22]; 25 ppm): + (100% cytolysis of planktons after 2 hr)
Effect on viability ([23]; 5 ppm): + (100% cytolysis of planktons after 2 hr)
Effect on viability ([23]; 25 ppm): + (100% cytolysis of planktons after 2 hr)
algicidal activity [24]: strong algicidal activity

CC/C=C\C/C=C\C/C=C\CCCCCCCC(=O)[O-].[Na+] [sodium linolenate]
LC100 [2]: > 150 ppm
Maximum no effect concentration [2]: < 100 ppm

CCCCC/C=C\C/C=C\C/C=C\C/C=C\CCCC(=O)O [arachidonic acid]
EC100 [1]: 2.5 µg/mL

CCC=CCC=CCC=CCC=CCC=CCCCC(=O)O [5,8, 11, 14, 17-eicosapentaenoic acid]
LC100 [2]: > 30 ppm
Maximum no effect concentration [2]: < 25 ppm
EC100 [1, 25]: 2.5 µg/mL

CCCCC/C=C\C/C=C\C/C=C\CCCCC(=O)O [γ-linolenic acid]
LC100 [2]: > 50 ppm
Maximum no effect concentration [2]: < 40 ppm
EC100 [1, 25]: 25 µg/mL
